Test results from patent publication US11214594B2, “Antimicrobial peptide having synergistic antibacterial effect with antibiotics on multidrug resistant bacteria, and use thereof” (priority 2016, dated 2022).
Values after ≈ are worked out from the molar mass of the structure shown. Where a SMILES comes first, the peptide text is derived from it.

Columns and labels:
[1] = test system: E. coli; experiment: microbe, parasite or virus in culture; assay type: cell-based, Escherichia coli; conditions: 16 h
Outline: (§1)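 MIC read-out = lowest peptide level with no bacterial proliferation. Strains diluted in MH medium to 2×10^6 CFU; peptide twofold serial dilutions in MH added 1:1 in microtiter wells.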

[2] = test system: MDREC 1229; experiment: microbe, parasite or virus in culture; assay type: cell-based, Escherichia coli
Outline: as §1

[3] = test system: MDREC 1238; assay type: cell-based, Escherichia coli
Outline: as §1

[4] = test system: P. aeruginosa; experiment: microbe, parasite or virus in culture; assay type: cell-based, Pseudomonas aeruginosa
Outline: as §1

[5] = test system: MDRAB 12036; assay type: cell-based, Acinetobacter baumannii
Outline: as §1

[6] = test system: S. typhimurium; experiment: microbe, parasite or virus in culture; assay type: cell-based, Salmonella typhimurium
Outline: as §1

[7] = test system: MDRST 8007; experiment: Minimal inhibitory concentration (MIC), single agent; assay type: cell-based, Salmonella typhimurium; conditions: agent alone
Outline: as §1

[8] = test system: MDRST 8009; assay type: cell-based, Salmonella typhimurium; conditions: agent alone
Outline: as §1

[9] = test system: S. epidermidis; experiment: microbe, parasite or virus in culture; assay type: cell-based, Staphylococcus epidermidis
Outline: as §1

[10] = test system: S. aureus; experiment: microbe, parasite or virus in culture; assay type: cell-based, Staphylococcus aureus
Outline: as §1

[11] = test system: MRSA 3114; assay type: cell-based, Staphylococcus aureus; conditions: 3114
Outline: as §1

[12] = test system: MRSA 3126; assay type: cell-based, Staphylococcus aureus; conditions: 3126
Outline: as §1

[13] = test system: E. coli; experiment: MIC of antibiotic during combined treatment with antimicrobial peptide; assay type: cell-based, Escherichia coli; conditions: for Antibiotic MIC, Erythromycin / Antibiotic MIC, Linezolid / Antibiotic MIC, Vancomycin: E. coli
Outline: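 Antibiotic diluted in MH medium, dispensed per well with peptide; setup repeated with roles reversed; MIC read per combination.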

[14] = test system: MDREC 1229; experiment: as above; assay type: cell-based, Escherichia coli
Outline: (§2)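 Antibiotic MIC came from antibiotic dilutions added to bacteria (2×10^6 CFU/ml, MH medium) already combined with peptide serially diluted 2:1 from its own MIC. Swapping the roles of the two agents gave the peptide MIC.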

[15] = test system: A. baumannii; experiment: MIC of antimicrobial peptide during combined treatment with antibiotic; assay type: cell-based, Acinetobacter baumannii
Outline: as §2

[16] = test system: MDRAB 12035; experiment: as above; assay type: cell-based, Acinetobacter baumannii
Outline: as §2

[17] = peptide treatment concentration 1 μg/ml
[18] = peptide treatment concentration 2 μg/ml
[19] = peptide treatment concentration 4 μg/ml
[20] = peptide treatment concentration 6 μg/ml
[21] = peptide treatment concentration 8 μg/ml
[22] = peptide treatment concentration 16 μg/ml
[23] = peptide treatment concentration 32 μg/ml
[24] = peptide treatment concentration 64 μg/ml
[25] = erythromycin 4 μg/ml (Conc./MIC 1/8)
[26] = erythromycin 8 μg/ml (Conc./MIC 1/4)
[27] = erythromycin 16 μg/ml (Conc./MIC 1/2)
[28] = erythromycin 32 μg/ml (Conc./MIC 1)
[29] = vancomycin 512 μg/ml (Conc./MIC 1/2)
[30] = vancomycin 1024 μg/ml (Conc./MIC 1)

With `CC[C@H](C)[C@H](NC(=O)[C@H](CCCCN)NC(=O)[C@H](Cc1c[nH]c2ccccc12)NC(=O)[C@@H](N)CCCNC(=N)N)C(=O)N[C@@H](Cc1ccccc1)C(=O)N[C@@H](CCCCN)C(=O)N[C@@H](CCCCN)C(=O)N[C@H](C(=O)N1CCC[C@H]1C(=O)N[C@@H](CCCCN)C(=O)N[C@@H](Cc1ccccc1)C(=O)N[C@@H](CC(C)C)C(=O)N[C@@H](Cc1c[nH]cn1)C(=O)N[C@@H](CO)C(=O)N[C@@H](Cc1ccccc1)C(=O)N[C@@H](CCCCN)C(=O)N[C@@H](CCCCN)C(=O)N[C@@H](Cc1ccccc1)C(N)=O)[C@@H](C)CC` [PapMA-5, RWK IFK KIP KFL HSF KKF-NH2] (H-RWKIFKKIPKFLHSFKKF-NH2; N-terminus assumed) the “Minimal inhibitory concentration MIC” value [1] was 64 mg/L (≈ 26.9 µM), the “Minimal inhibitory concentration MIC” value [2] was 64 mg/L (≈ 26.9 µM) and the “Minimal inhibitory concentration MIC” value [3] was 64 mg/L (≈ 26.9 µM). The “Minimal inhibitory concentration MIC” value [4] was 16 mg/L (≈ 6.73 µM), the “Minimal inhibitory concentration MIC” value [5] was 64 mg/L (≈ 26.9 µM) and the “Minimal inhibitory concentration MIC” value [6] was 64 mg/L (≈ 26.9 µM). The “Minimal inhibitory concentration MIC” value [7] was 64 mg/L (≈ 26.9 µM), the “Minimal inhibitory concentration MIC” value [8] was 64 mg/L (≈ 26.9 µM) and the “Minimal inhibitory concentration MIC” value [9] was greater than 128 mg/L. The “Minimal inhibitory concentration MIC” value [10] was greater than 128 mg/L, the “Minimal inhibitory concentration MIC” value [11] was greater than 128 mg/L and the “Minimal inhibitory concentration MIC” value [12] was greater than 128 mg/L. For the same compound, the “Synergistic effect of antibacterial activity with existing antibiotics compared with PapMA-1” value ([13]; E. coli and MDREC1229) was “level similar to that of the PapMA-1 peptide”, the “Antibiotic MIC, Erythromycin” value ([13]; erythromycin combined with peptide at 1 μg/ml) was 128 mg/L and the “Antibiotic MIC, Erythromycin” value ([13]; erythromycin combined with peptide at 2 μg/ml) was 64 mg/L. For the same compound, the “Antibiotic MIC, Erythromycin” value ([13]; erythromycin combined with peptide at 4 μg/ml) was 32 mg/L, the “Antibiotic MIC, Erythromycin” value ([13]; erythromycin combined with peptide at 6 μg/ml) was 8 mg/L and the “Antibiotic MIC, Erythromycin” value ([13]; erythromycin combined with peptide at 8 μg/ml) was 2 mg/L. The “Antibiotic MIC, Erythromycin” value ([13]; erythromycin combined with peptide at 16 μg/ml) was 0.5 mg/L, the “Antibiotic MIC, Erythromycin” value ([13]; erythromycin combined with peptide at 32 μg/ml) was 0.5 mg/L and the “Antibiotic MIC, Erythromycin” value ([13]; erythromycin combined with peptide at 64 μg/ml) was 0 mg/L. The “Antibiotic MIC, Linezolid” value ([13]; linezolid combined with peptide at 1 μg/ml) was greater than 128 mg/L, the “Antibiotic MIC, Linezolid” value ([13]; linezolid combined with peptide at 2 μg/ml) was 128 mg/L and the “Antibiotic MIC, Linezolid” value ([13]; linezolid combined with peptide at 4 μg/ml) was 64 mg/L. The “Antibiotic MIC, Linezolid” value ([13]; linezolid combined with peptide at 6 μg/ml) was 32 mg/L, the “Antibiotic MIC, Linezolid” value ([13]; linezolid combined with peptide at 8 μg/ml) was 16 mg/L and the “Antibiotic MIC, Linezolid” value ([13]; linezolid combined with peptide at 16 μg/ml) was 8 mg/L. For the same compound, the “Antibiotic MIC, Linezolid” value ([13]; linezolid combined with peptide at 32 μg/ml) was 2 mg/L, the “Antibiotic MIC, Linezolid” value ([13]; linezolid combined with peptide at 64 μg/ml) was 0 mg/L and the “Antibiotic MIC, Vancomycin” value ([13]; vancomycin combined with peptide at 1 μg/ml) was greater than 128 mg/L. The “Antibiotic MIC, Vancomycin” value ([13]; vancomycin combined with peptide at 2 μg/ml) was greater than 128 mg/L, the “Antibiotic MIC, Vancomycin” value ([13]; vancomycin combined with peptide at 4 μg/ml) was 128 mg/L and the “Antibiotic MIC, Vancomycin” value ([13]; vancomycin combined with peptide at 6 μg/ml) was 64 mg/L. The “Antibiotic MIC, Vancomycin” value ([13]; vancomycin combined with peptide at 8 μg/ml) was 32 mg/L, the “Antibiotic MIC, Vancomycin” value ([13]; vancomycin combined with peptide at 16 μg/ml) was 8 mg/L and the “Antibiotic MIC, Vancomycin” value ([13]; vancomycin combined with peptide at 32 μg/ml) was 2 mg/L. The “Antibiotic MIC, Vancomycin” value ([13]; vancomycin combined with peptide at 64 μg/ml) was 0 mg/L, the “Antibiotic MIC, Erythromycin” value [14, 17] was 128 mg/L and the “Antibiotic MIC, Linezolid” value [14, 17] was 128 mg/L. For the same compound, the “Antibiotic MIC, Vancomycin” value [14, 17] was greater than 128 mg/L, the “Antibiotic MIC, Erythromycin” value [14, 18] was 64 mg/L and the “Antibiotic MIC, Linezolid” value [14, 18] was 128 mg/L. The “Antibiotic MIC, Vancomycin” value [14, 18] was greater than 128 mg/L, the “Antibiotic MIC, Erythromycin” value [14, 19] was 16 mg/L and the “Antibiotic MIC, Linezolid” value [14, 19] was 64 mg/L. For the same compound, the “Antibiotic MIC, Vancomycin” value [14, 19] was greater than 128 mg/L, the “Antibiotic MIC, Erythromycin” value [14, 20] was 8 mg/L and the “Antibiotic MIC, Linezolid” value [14, 20] was 32 mg/L. The “Antibiotic MIC, Vancomycin” value [14, 20] was greater than 128 mg/L, the “Antibiotic MIC, Erythromycin” value [14, 21] was 4 mg/L and the “Antibiotic MIC, Linezolid” value [14, 21] was 32 mg/L. For the same compound, the “Antibiotic MIC, Vancomycin” value [14, 21] was 64 mg/L, the “Antibiotic MIC, Erythromycin” value [14, 22] was 1 mg/L and the “Antibiotic MIC, Linezolid” value [14, 22] was 16 mg/L. The “Antibiotic MIC, Vancomycin” value [14, 22] was 16 mg/L, the “Antibiotic MIC, Erythromycin” value [14, 23] was 0.25 mg/L and the “Antibiotic MIC, Linezolid” value [14, 23] was 4 mg/L. The “Antibiotic MIC, Vancomycin” value [14, 23] was 8 mg/L, the “Antibiotic MIC, Erythromycin” value [14, 24] was 0 mg/L and the “Antibiotic MIC, Linezolid” value [14, 24] was 0 mg/L. The “Antibiotic MIC, Vancomycin” value [14, 24] was 0 mg/L, the “Peptide MIC during treatment with antibiotic” value [15, 25] was 8 mg/L and the “Peptide MIC during treatment with antibiotic” value [15, 26] was 4 mg/L. For the same compound, the “Peptide MIC during treatment with antibiotic” value [15, 27] was 2 mg/L, the “Peptide MIC during treatment with antibiotic” value [15, 28] was 0 mg/L and the “Peptide MIC during treatment with antibiotic” value ([15]; linezolid 32 μg/ml (Conc./MIC 1/8)) was 4 mg/L. The “Peptide MIC during treatment with antibiotic” value ([15]; linezolid 64 μg/ml (Conc./MIC 1/4)) was 2 mg/L, the “Peptide MIC during treatment with antibiotic” value ([15]; linezolid […] (Conc./MIC 1)) was 0 mg/L and the “Peptide MIC during treatment with antibiotic” value ([15]; linezolid […] (Conc./MIC 1/2)) was 1 mg/L. The “Peptide MIC during treatment with antibiotic” value [15, 29] was 0.5 mg/L, the “Peptide MIC during treatment with antibiotic” value [15, 30] was 0 mg/L and the “Peptide MIC during treatment with antibiotic” value ([15]; vancomycin […] (Conc./MIC 1/4)) was 1 mg/L. For the same compound, the “Peptide MIC during treatment with antibiotic” value ([15]; vancomycin […] (Conc./MIC 1/8)) was 4 mg/L, the “Peptide MIC during treatment with erythromycin” value [16, 25] was 4 mg/L and the “Peptide MIC during treatment with erythromycin” value [16, 26] was 4 mg/L. For the same compound, the “Peptide MIC during treatment with erythromycin” value [16, 27] was 4 mg/L, the “Peptide MIC during treatment with erythromycin” value [16, 28] was 0 mg/L and the “Peptide MIC during treatment with linezolid” value ([16]; linezolid 64 μg/ml (Conc./MIC 1/8)) was 4 mg/L. For the same compound, the “Peptide MIC during treatment with linezolid” value ([16]; linezolid 512 μg/ml (Conc./MIC 1)) was 0 mg/L, the “Peptide MIC during treatment with linezolid” value ([16]; linezolid […] (Conc./MIC 1/2)) was 1 mg/L and the “Peptide MIC during treatment with linezolid” value ([16]; linezolid […] (Conc./MIC 1/4)) was 4 mg/L. The “Peptide MIC during treatment with vancomycin” value [16, 29] was 2 mg/L, the “Peptide MIC during treatment with vancomycin” value [16, 30] was 1 mg/L and the “Peptide MIC during treatment with vancomycin” value ([16]; vancomycin […] (Conc./MIC 1/4)) was 4 mg/L. The “Peptide MIC during treatment with vancomycin” value ([16]; vancomycin […] (Conc./MIC 1/8)) was 4 mg/L.
